# Data taken from patent US20110294686A1, “EGFR INHIBITOR THERAPY RESPONSIVENESS” (priority 2008, published 2011).
# Read-outs that look alike come from different tables or passages of the source.
# Tests used:
# [1] = system: Metastatic NSCLC patients; details: for Response to gefitinib therapy: metastatic NSCLC
# [2] = system: chemo-refractory advanced stage NSCLC; details: phase II clinical trials; cited from earlier work
# [3] = EIF3H FISH negative patients (mean <2.75)
# [4] = EIF3H FISH positive patients (mean ≧2.75)
# [5] = MYC FISH negative patients (mean <2.79)
# [6] = MYC FISH positive patients (mean ≧2.79)
smiles,measurement,setting,value
COc1cc2ncnc(Nc3ccc(F)c(Cl)c3)c2cc1OCCCN1CCOCC1 [gefitinib],response rate (RR),[1]; [3],0%
same,time to progression (TTP),[1]; [3],2.7 months
same,response rate (RR),[1]; [4],32%
same,survival (OS),[1]; [4],17.8 months
same,time to progression (TTP),[1]; [4],4.4 months
same,Response to gefitinib therapy,[1]; EIF3H amplified patients (ratio EIF3H/CEP8>2),30%
same,Response to gefitinib therapy,[1]; EIF3H non amplified patients,14%
same,response rate (RR),[1]; [5],0%
same,time to progression (TTP),[1]; [5],2.6 months
same,response rate (RR),[1]; [6],31%
same,time to progression (TTP),[1]; [6],4.4 months
same,Response to gefitinib therapy,[1]; MYC amplified patients,25%
same,Response to gefitinib therapy,[1]; MYC non-amplified patients,14%
same,patients responding to treatment,[2],11-20%
